From US20260137819A1 (Radionetics Oncology, Inc., priority 2022, published 2026)
Starred links: 1 amine or outer side, 2 acyl side, 3 side chain; linkers in the order of their positions; H or OH if unused. Non-standard residues stand in square brackets, D forms with d. Residues, ends and D or L forms follow the SMILES beside them. Groups on a side chain read outwards from the residue. *: point of attachment. X1 = COc1cc2c(cc1-c1cccc(N*)c1)-c1c(c(C(=O)N3CCOCC3(C)C)nn1-c1cc(Cl)cc(Cl)c1)CO2; DOTA = O=C(O)CN1CCN(CC(=O)O)CCN(CC(=O)*)CCN(CC(=O)O)CC1; Suc = O=C(CCC(=O)[*:2])[*:1]

Each compound was assayed against T1, human follicle-stimulating hormone receptor (FSHR) (Homo sapiens, UniProt P23945) (assay: Measurement of agonist cAMP production by activation of human FSHR). Conditions: CHO-K1 human FSHR cells, 30 minutes at 37° C., HTRF cAMP kit; read-out: hFSHR Agonist cAMP EC50.
T1 construct: host or cells: CHO-K1
T1 sequence (P23945 18-695): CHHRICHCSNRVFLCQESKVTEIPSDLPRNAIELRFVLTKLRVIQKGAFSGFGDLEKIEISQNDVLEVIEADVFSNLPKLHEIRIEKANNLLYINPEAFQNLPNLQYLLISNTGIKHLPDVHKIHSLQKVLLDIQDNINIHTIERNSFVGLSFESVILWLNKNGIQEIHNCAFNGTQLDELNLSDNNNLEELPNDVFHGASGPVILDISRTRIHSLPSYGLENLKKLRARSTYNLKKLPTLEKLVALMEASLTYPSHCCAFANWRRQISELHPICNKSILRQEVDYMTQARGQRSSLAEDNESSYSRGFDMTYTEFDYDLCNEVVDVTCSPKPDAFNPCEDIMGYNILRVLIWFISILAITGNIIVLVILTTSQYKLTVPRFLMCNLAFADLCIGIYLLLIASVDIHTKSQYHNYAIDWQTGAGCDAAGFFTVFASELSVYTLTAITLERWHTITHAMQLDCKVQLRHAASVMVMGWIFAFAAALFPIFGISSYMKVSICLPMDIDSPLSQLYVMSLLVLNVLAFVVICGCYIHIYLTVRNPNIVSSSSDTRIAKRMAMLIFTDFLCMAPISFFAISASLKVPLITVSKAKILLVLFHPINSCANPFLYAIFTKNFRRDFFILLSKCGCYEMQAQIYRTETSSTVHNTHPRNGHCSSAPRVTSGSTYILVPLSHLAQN
Format: cell-based
Procedure: Measurement of agonist cAMP production by activation of human FSHR
Two days prior to the assay, 5,000 CHO—K1 human FSHR cells (Eurofins #95-0119C2) stably expressing the functional human follicle-stimulating hormone receptor were plated in a 96-well tissue culture-treated plate in growth media supplemented with the appropriate selection agent. […] The cells were incubated for 30 minutes at 37° C. (the final concentrations of the compound ranged from 0-10,000 nM). After the 30-minute incubation at 37° C., lysis buffer (HRTF CAMP kit, Cisbio #62AM5PEB)w as added directly to the cells and incubated for 30-minutes at room temperature. The diluted lysate was transferred and CAMP detection and visualization antibodies (HRTF CAMP kit, Cisbio #62AM5PEB) were added and incubated for 1-24 hours at room temperature. The time-resolved fluorescent signal was read with a Tecan M1000Pro (Tecan) multiplate reader. The intracellular cAMP concentrations were calculated by regression to a standard curve and were plotted vs. the concentration of the agonists. The concentration of test compound or FSH required to generate a half maximal response EC50 were calculated using standard curve-fitting methods. All data manipulations were performed using GraphPad Prism v9.3.1 (GraphPad, San Diego, CA).
`COc1cc2c(cc1-c1cccc(NC(=O)CCC(=O)NCCCC[C@@H](NC(=O)[C@@H](C)NC(=O)CN3CCN(CC(=O)O)CCN(CC(=O)O)CCN(CC(=O)O)CC3)C(=O)N[C@H](CCC(=O)O)C(=O)N[C@H](CCC(=O)O)C(=O)N[C@H](CCC(=O)O)C(=O)N[C@H](CCC(=O)O)C(=O)N[C@H](C)C(N)=O)c1)-c1c(c(C(=O)N3CCOCC3(C)C)nn1-c1cc(Cl)cc(Cl)c1)CO2` [Compound 87, 2,2′,2″-(10-((4R,7R,10R,13R,16R,19R,22R)-23-amino-10,13,16,19-tetrakis(2carboxyethyl)-7-(4-(4-((3-(1-(3,5-dichlorophenyl)-3-(3,3-dimethylmorpholine-4-carbonyl)-7-methoxy-1,4-dihydrochromeno|4,3-c|pyrazol-8-yl)phenyl)amino)-4-oxobutanamido)butyl)-4,22-dimethyl-2,5,8,11,14,17,20,23-octaoxo-3,6,9,12,15,18,21-heptaazatricosyl)-1,4,7,10-tetraazacyclododecane-1,4,7-triyl)triacetic acid] ({DOTA}-[dA][dK]([Suc-X1])[dE][dE][dE][dE][dA]-NH2) showed an EC50 of 10 to 100 nM.
For `COc1cc2c(cc1-c1cccc(NC(=O)CNC(=O)C[C@@H](NC(=O)CN3CCN(CC(=O)O)CCN(CC(=O)O)CCN(CC(=O)O)CC3)C(=O)O)c1)-c1c(c(C(=O)N3CCOCC3(C)C)nn1-c1cc(Cl)cc(Cl)c1)CO2` [Compound 32, (R)-2,2′,2″-(10-(2-((1-carboxy-3-((2-((3-(1-(3,5-dichlorophenyl)-3-(3,3-dimethylmorpholine-4-carbonyl)-7-methoxy-1,4-dihydrochromeno|4,3-clpyrazol-8-yl)phenyl)amino)-2-oxoethyl)amino)-3-oxopropyl)amino)-2-oxoethyl)-1,4,7,10-tetraazacyclododecane-1,4,7-triyl)triacetic acid], the EC50 was 10 to 100 nM.
For `COc1cc2c(cc1-c1cncc(NC(=O)CCC(=O)N(CCOCCOCCC(=O)O)C3CCN(C(=O)CN4CCN(CC(=O)O)CCN(CC(=O)O)CCN(CC(=O)O)CC4)CC3)c1)-c1c(c(C(=O)N3CCOCC3(C)C)nn1-c1cc(F)cc(F)c1)CO2` [Compound 60, 2,2′,2″-(10-(2-(4-(N-(2-(2-(2-carboxyethoxy)ethoxy)ethyl)-4-((5-(1-(3,5-difluorophenyl)-3-(3,3-dimethylmorpholine-4-carbonyl)-7-methoxy-1,4-dihydrochromeno[4,3-c]pyrazol-8-yl)pyridin-3-yl)amino)-4-oxobutanamido)piperidin-1-yl)-2-oxoethyl)-1,4,7,10-tetraazacyclododecane-1,4,7-triyl)triacetic acid--formic acid (1/1)], the EC50 was 10 to 100 nM.
For `COc1cc2c(cc1-c1cccc(NC(=O)CCC(=O)NCCCC[C@@H](NC(=O)[C@@H](CCC(=O)O)NC(=O)[C@@H](CCCNC(=N)N)NC(=O)[C@@H](CCC(=O)O)NC(=O)[C@@H](CCCNC(=N)N)NC(=O)[C@@H](C)NC(=O)CN3CCN(CC(=O)O)CCN(CC(=O)O)CCN(CC(=O)O)CC3)C(=O)N[C@H](C)C(N)=O)c1)-c1c(c(C(=O)N3CCOCC3(C)C)nn1-c1cc(Cl)cc(Cl)c1)CO2` [Compound 84, 2,2′,2″-(10-((4R,7R,10R,13R,16R,19R)-19-(((R)-1-amino-1-oxopropan-2yl)carbamoyl)-10,16-bis(2-carboxyethyl)-28-((3-(1-(3,5-dichlorophenyl)-3-(3,3-dimethylmorpholine-4-carbonyl)-7-methoxy-1,4-dihydrochromeno|4,3-clpyrazol-8-yl)phenyl)amino)-7,13-bis(3-guanidinopropyl)-4-methyl-2,5,8,11,14,17,25,28-octaoxo-3,6,9,12,15,18,24-heptaazaoctacosyl)-1,4,7,10-tetraazacyclododecane-1,4,7-triyl)triacetic acid] ({DOTA}-[dA][dR][dE][dR][dE][dK]([Suc-X1])[dA]-NH2), the EC50 was 10 to 100 nM.
For `COc1cc2c(cc1-c1cccc(NC(=O)CN(C)C(=O)CN(C)C(=O)CN(C)C(=O)CN(C)C(=O)CN(C)C(=O)CCNC(=O)CN3CCN(CC(=O)O)CCN(CC(=O)O)CCN(CC(=O)O)CC3)c1)-c1c(c(C(=O)N3CCOCC3(C)C)nn1-c1cc(Cl)cc(Cl)c1)CO2` [Compound 22], the EC50 was < 10 nM.
With `COc1cc2c(cc1-c1cncc(NC(=O)CCC(=O)NC[C@H](NC(=O)CN3CCN(CC(=O)O)CCN(CC(=O)O)CCN(CC(=O)O)CC3)C(=O)N3CCN(CCS(=O)(=O)O)CC3)c1)-c1c(c(C(=O)N3CCOCC3(C)C)nn1-c1cc(F)cc(F)c1)CO2` [Compound 49, (S)-2,2′,2″-(10-(2-((3-(4-((5-(1-(3,5-difluorophenyl)-3-(3,3-dimethylmorpholine-4-carbonyl)-7-methoxy-1,4-dihydrochromeno[4,3-c]pyrazol-8-yl)pyridin-3-yl)amino)-4-oxobutanamido)-1-oxo-1-(4-(2-sulfoethyl)piperazin-1-yl)propan-2-yl)amino)-2-oxoethyl)-1,4,7,10-tetraazacyclododecane-1,4,7-triyl)triacetic acid--formic acid (1/1)] the EC50 was > 100 nM.
Work on `COc1cc2c(cc1-c1cccc(OCCCNC(=O)[C@@H](CCC(=O)O)NCCOCCNC(=O)[C@H](CS(=O)(=O)O)NC(=O)CN3CCN(CC(=O)O)CCN(CC(=O)O)CCN(CC(=O)O)CC3)c1)-c1c(c(C(=O)N3CCOCC3(C)C)nn1-c1cc(Cl)cc(Cl)c1)CO2` [Compound 74, 2,2′,2″-(10-((4R,13R)-13-(2-carboxyethyl)-18-(3-(1-(3,5-dichlorophenyl)-3(3,3-dimethylmorpholine-4-carbonyl)-7-methoxy-1,4-dihydrochromeno[4,3-c]pyrazol-8-yl)phenoxy)-2,5,14-trioxo-4-(sulfomethyl)-9-oxa-3,6,12,15-tetraazaoctadecyl)-1,4,7,10-tetraazacyclododecane-1,4,7-triyl)triacetic acid--2,2,2-trifluoroacetic acid (1/1)] yielded an EC50 of 10 to 100 nM.
With `COc1cc2c(cc1-c1cccc(C(=O)NCCOCCOCCOCCOCCOCCOCCNC(=O)CN3CCN(CC(=O)O)CCN(CC(=O)O)CCN(CC(=O)O)CC3)c1)-c1c(c(C(=O)N(C)C(C)(C)C)nn1-c1cc(Cl)cc(Cl)c1)CO2` [Compound 4] the EC50 was < 10 nM.
With `COc1cc2c(cc1-c1cccc(NC(=O)CCC(=O)NCCCC[C@@H](NC(=O)[C@@H](CC(=O)O)NC(=O)[C@@H](CC(=O)O)NC(=O)CCNC(=O)CN3CCN(CC(=O)O)CCN(CC(=O)O)CCN(CC(=O)O)CC3)C(N)=O)c1)-c1c(c(C(=O)N3CCOCC3(C)C)nn1-c1cc(Cl)cc(Cl)c1)CO2` [Compound 51, 2,2′,2″-(10-((8R,11R,14R)-14-carbamoyl-8,11-bis(carboxymethyl)-23-((3-(1(3,5-dichlorophenyl)-3-(3,3-dimethylmorpholine-4-carbonyl)-7-methoxy-1,4-dihydrochromeno[4,3-c]pyrazol-8-yl)phenyl)amino)-2,6,9,12,20,23-hexaoxo-3,7,10,13,19-pentaazatricosyl)-1,4,7,10-tetraazacyclododecane-1,4,7-triyl)triacetic acid] the EC50 was < 10 nM.
With `COc1cc2c(cc1-c1cncc(NC(=O)CCOCCNC(=O)CN3CCN(CC(=O)O)CCN(CC(=O)O)CCN(CC(=O)O)CC3)c1)-c1c(c(C(=O)N3CCOCC3(C)C)nn1-c1cc(Cl)cc(Cl)c1)CO2` [Compound 53, 2,2′,2″-(10-(2-((2-(3-((5-(1-(3,5-dichlorophenyl)-3-(3,3-dimethylmorpholine-4-carbonyl)-7-methoxy-1,4-dihydrochromeno[4,3-c]pyrazol-8-yl)pyridin-3-yl)amino)-3-oxopropoxy)ethyl)amino)-2-oxoethyl)-1,4,7,10-tetraazacyclododecane-1,4,7-triyl)triacetic acid--2,2,2-trifluoroacetic acid (1/1)] the EC50 was < 10 nM.
